Experimental data from the supplement of paper PMC10307832.

Assays:
Assay in all cases: relative viability (nuclei count vs DMSO), 5 days (fraction); higher = more cells survive
NCI-H1975 = test system: NCI-H1975
How it was run: (§1)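 Lung cancer cell lines were pin-tool dosed in 1536-well plates on the day after seeding, with either a lone drug or a fixed anchor-drug dose plus five library-drug doses (not always all listed) in √10 steps. Nuclei were counted on 4× images after 5 days. Relative viability is the ratio of treated-well to vehicle-well nuclei counts, with each value a median of duplicate plates.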

NCI-H23 = test system: NCI-H23
How it was run: as §1

NCI-H1563 = test system: NCI-H1563
How it was run: as §1

HOP-62 = test system: HOP-62
How it was run: as §1

NCI-H2170 = test system: NCI-H2170
How it was run: as §1

NCI-H1623 = test system: NCI-H1623
How it was run: as §1

| SMILES | relative viability (NCI-H1975; first compound 0.08 µM) | relative viability (NCI-H1975; first compound 0.253 µM) | relative viability (NCI-H1975; first compound 0.8 µM) | relative viability (NCI-H1975; first compound 2.53 µM) | relative viability (NCI-H1975; first compound 8 µM) | relative viability (NCI-H23; first compound 0.08 µM) | relative viability (NCI-H23; first compound 0.253 µM) | relative viability (NCI-H23; first compound 0.8 µM) | relative viability (NCI-H23; first compound 2.53 µM) | relative viability (NCI-H23; first compound 8 µM) | relative viability (NCI-H1563; first compound 0.08 µM) | relative viability (NCI-H1563; first compound 0.253 µM) | relative viability (NCI-H1563; first compound 0.8 µM) | relative viability (NCI-H1563; first compound 2.53 µM) | relative viability (NCI-H1563; first compound 8 µM) | relative viability (HOP-62; first compound 0.08 µM) | relative viability (HOP-62; first compound 0.253 µM) | relative viability (HOP-62; first compound 0.8 µM) | relative viability (HOP-62; first compound 2.53 µM) | relative viability (HOP-62; first compound 8 µM) | relative viability (NCI-H2170; first compound 0.08 µM) | relative viability (NCI-H2170; first compound 0.253 µM) | relative viability (NCI-H2170; first compound 0.8 µM) | relative viability (NCI-H2170; first compound 2.53 µM) | relative viability (NCI-H2170; first compound 8 µM) | relative viability (NCI-H1623; first compound 0.08 µM) | relative viability (NCI-H1623; first compound 0.253 µM) | relative viability (NCI-H1623; first compound 0.8 µM) | relative viability (NCI-H1623; first compound 2.53 µM) | relative viability (NCI-H1623; first compound 8 µM) |
| --- | --- | --- | --- | --- | --- | --- | --- | --- | --- | --- | --- | --- | --- | --- | --- | --- | --- | --- | --- | --- | --- | --- | --- | --- | --- | --- | --- | --- | --- | --- |
| C=C1C(=O)O[C@@H](CCCCCCCC)[C@@H]1C(=O)O [C-75] + Cc1nc(Nc2ncc(C(=O)Nc3c(C)cccc3Cl)s2)cc(N2CCN(CCO)CC2)n1 [Dasatinib] (partner 0.075 µM) | 0.364 | 0.432 | 0.318 | 0.324 | 0.404 | 0.81 | 0.756 | 0.718 | 0.443 | 0.586 | 0.387 | 0.453 | 0.444 | 0.415 | 0.569 | 0.642 | 0.499 | 0.6 | 0.603 | 0.666 | 0.692 | 0.552 | 0.552 | 0.476 | 0.522 | 0.591 | 0.649 | 0.516 | 0.447 | 0.695 |
| Oc1nc(-c2ccc(C(F)(F)F)cc2)nc2c1CSCC2 [XAV939] + Cc1nc(Nc2ncc(C(=O)Nc3c(C)cccc3Cl)s2)cc(N2CCN(CCO)CC2)n1 [Dasatinib] (partner 0.075 µM) | 0.305 | 0.264 | 0.286 | 0.234 | – | 0.872 | 0.7 | 0.895 | 0.722 | – | 0.422 | 0.442 | 0.475 | 0.415 | – | 0.738 | 0.659 | 0.621 | 0.396 | – | 0.505 | 0.496 | 0.46 | 0.394 | – | 0.474 | 0.516 | 0.521 | 0.555 | – |
